Measurements as given in patent publication US9283233B2, “Method for on-demand contraception” (LABORATOIRE HRA PHARMA, priority 2009, dated 2016).

Tests used:
[1] = Multiple intakes of ulipristal acetate within a menstrual cycle after declared intercourse (pregnancy outcome); assay type: in vivo; conditions: 30 mg after a declared intercourse, twice during a menstrual cycle; several women (5 in the table)
Procedure: Multiple Intakes of Ulipristal Acetate within a Menstrual Cycle
Several women received ulipristal acetate (30 mg) after a declared intercourse, twice during a menstrual cycle.

[2] = 3 months of continuous daily administration to healthy cycling volunteers; assessment of ovarian hormones, follicular development, endometrial histology, bleeding patterns; assay type: in vivo, women; conditions: one patient, 10 mg/day, missed 2 days of drug (days 1 and 2) in third treatment cycle
Procedure: For that purpose, health cycling volunteers received 3 months of continuous daily administration of ulipristal acetate (2.5, 5 or 10 mg) or placebo.
Assessment of ovarian hormones, follicular development, endometrial histology, and menstrual bleeding patterns was carried out during the third month of treatment.
This made the inventors think that ulipristal acetate could be used as a contraceptive which could be taken on-demand, rather than everyday as any hormonal contraceptive pill.

[3] = single dose of 50 mg, within 72 hours after unprotected intercourse; cited from earlier work

Which results are given for CC(=O)O[C@]1(C(C)=O)CC[C@H]2[C@@H]3CCC4=CC(=O)CCC4=C3[C@@H](c3ccc(N(C)C)cc3)C[C@@]21C [ulipristal acetate, 17α-acetoxy-11β-[4-N,N-dimethylamino-phenyl)-19-norpregna-4,9-diene-3,20-dione]?
pregnancy [1]: No pregnancy was observed; luteal activity or ovulation [2]: no sign of luteal activity or ovulation; safety and efficacy as emergency contraception [3]: safe and efficacious
